2 compounds from patent publication US10806694B2, “Nanoparticles for photodynamic therapy, X-ray induced photodynamic therapy, radiotherapy, radiodynamic therapy, chemotherapy, immunotherapy, and any combination thereof” (The University of Chicago, priority 2014, dated 2020) can be followed below.

One data set concerns HT29 cells. Description: In vitro PDT cytotoxicity. Type of data set: cell-based, human. To be noted: with irradiation, LED 90 J/cm^2 (0.1 W/cm^2, 15 min), 640 or 650 nm. The method, then:
The tumor cell uptake of NMOFs was evaluated by incubating CT26 cells with DBP-UiO or DBC-UiO at a Hf concentration of 50 μM for 4 h. […] The in vitro PDT efficacy of DBC-UiO against colon cancer cells was investigated and compared with DBP-UiO and their corresponding free ligands. […] DBP-UiO and […]: 640 nm; DBC-UiO and […]: 650 nm). DBC-UiO outperformed DBP-UiO by effectively killing both cancer cell lines at low NMOF and light doses.

Data set [1] concerns subcutaneous flank tumor mouse model of HT29. Description: In vivo PDT anticancer efficacy. The arrangement: species or system mice. Conditions: ligand dose 1 mg/kg intratumoral, 90 J/cm^2, four treatments. Here is the method:
(§1) In vivo anticancer efficacy experiments on subcutaneous flank tumor mouse models of CT26 and HT29 were performed. The mice were intratumorally injected with (1) PBS control, (2) DBC-UiO, (3) DBP-UiO, (4) H2DBC, or (5) H2DBP at a ligand dose of 1 mg/kg or (6) DBC-UiO at a ligand dose of 3.5 mg/kg. Twelve hours post injection, each mouse in group (1)-(5) was irradiated at the tumor site with light (0.1 W/cm^2) for 15 min (90 J/cm^2) and the mice in group (6) received light irradiation (0.1 W/cm^2) for 30 min (180 J/cm^2). For (1) to (5) groups on the CT26 model, mice are treated again 4 days after first treatment, while for (1) to (5) groups on HT29 model, mice are treated every 4 days for total 4 treatments.

Data set [2] concerns subcutaneous flank tumor mouse model of CT26. The data set is described as follows: In vivo PDT anticancer efficacy. Also on record: species or system mice. Conditions: ligand dose 1 mg/kg intratumoral, 90 J/cm^2, two treatments. The method, then:
as §1

The nature of data set [3]: Fluorescence lifetime by Time-Correlated Single Photon Counting; fluorescence intensity. The format is physicochemical. The method, then:
The fluorescence spectra of H2DBP ligand and DBP-UiO NMOF were taken on a spectrofluorophotometer (RF-5301PC, Shimadzu Corporation, Kyoto, Japan).
Time-domain lifetimes were measured on a ChronosBH lifetime fluorimeter (ISS, Inc., Champaign, Ill., United States of America) using Time-Correlated Single Photon Counting (TCSPC) methods. The fluorimeter contained Becker-Hickl SPC-130 detection electronics and an HPM-100-40 Hybrid PMT detector. Tunable picosecond pulsed excitation was provided by a Fianium SC400-2 supercontiuum laser source with integrated pulse picker and AOTF. Emission wavelengths were selected with bandpass filters (Semrock and Chroma). The Instrument Response Function (IRF) was measured to be approximately 120 ps FWHM in a 1% scattering solution of Ludox LS colloidal silica. Lifetimes were fit via a forward convolution method in the Vinci control and analysis software.
Fluorescence spectra of suspensions of Hf-MOF (0.04 mM of L ligand) in water, DMF, and THF were taken with an excitation wavelength of 368.8 nm. […] Fluorescence lifetimes of Hf-MOF, Zr-MOF, and H2L suspensions in water were also examined.

Data set [4] in a line: UV-visible absorption, extinction coefficient. Type of data set: physicochemical. Here is the method:
The UV-visible absorption spectra of H2DBP and DBP-UiO were acquired with a UV-vis spectrophotometer (UV-2401 PC, Shimadzu Corporation, Kyoto, Japan). The H2DBP solution and DBP-UiO NMOF suspension were prepared in 0.67 mM phosphate buffer saline (PBS). The absorption of standard solutions of H2DBP at concentrations of 0.2, 0.4, 0.6, 0.8, 1, 1.5, 4 and 8 mg/L were acquired and the standard curve was plotted by linear fitting of the absorbance at 402 nm. The extinction coefficients of H2DBP at 402 nm and 619 nm are 2.2×10^5 and 1.7×10^3 M^−1cm^−1, respectively.
UV-visible absorption spectroscopy confirmed the photophysical properties of chlorin-based PSs. H2DBC has a split Soret band at λmax=408 nm and four Q-bands at 504, 534, 591, and 643 nm. […] The lowest energy Q-band of DBC-UiO has thus red-shifted by 13 nm from DBP-UiO, with an ε value of 24600 M^−1·cm^−1. H2DBC has an ε value of 21800 M^−1·cm^−1 for the lowest energy Q-band.

One may read the IC50 as the concentration that inhibits the measured activity by half. Higher therefore signals weaker potency. In turn, 5, 15-di(p-benzoato)chlorin [H2DBC] showed a concentration for half-maximal inhibition (IC50) in the data set with HT29 cells of 7.5 ± 2.3 µM. Also, in data set [1], the tumor growth entry was “failed to suppress the tumor growth”. Besides, the tumor growth result in data set [2] is reported as “failed to suppress the tumor growth”. The μ1 in data set [3] (in DMF) is recorded as 8.27 ns. Moreover, in data set [3] (in HBSS), the μ1 is listed as 5.80 ns, the μ2 is 8.77 ns and the τ stood at 8.15 ns. For the same compound, the “ε value of the lowest energy Q-band” value in data set [4] was 21800 M⁻¹ cm⁻¹.
Compound `O=C(O)c1ccc(-c2c3nc(cc4ccc([nH]4)c(-c4ccc(C(=O)O)cc4)c4nc(cc5ccc2[nH]5)C=C4)C=C3)cc1` [H2DBP, 5,15-di(p-benzoato)porphyrin] gave an IC50 with HT29 cells of 17 ± 4 µM. Further, the tumor growth entry in data set [1] is listed as “failed to suppress the tumor growth”. In data set [2], the tumor growth result is listed as “failed to suppress the tumor growth”. In data set [3] (aq), this compound gave a μ1 of 12.4 ns, a μ2 of 7.86 ns and a τ of 10.9 ns. For the same compound, the μ1 in data set [3] (in DMF) is listed as 11.3 ns. In data set [4] (PBS), the “extinction coefficient at 402 nm” value is 220000 M⁻¹ cm⁻¹ and the “extinction coefficient at 619 nm” value worked out at 1700 M⁻¹ cm⁻¹.
